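Compound exposure: 48 hours, 5 concentrations, 96-well plates. GI50 marks 50% less growth.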 Calls of active or inactive are those of the source. Rule as the data show it: active = GI50 up to about 1.1 µM and inactive = higher.
What was measured:
Assay in all cases: inhibition of tumour cell growth, NCI panel, 48 h
SK-OV-3 = system: SK-OV-3
TK-10 = system: TK-10
HL-60 = system: HL-60
RXF 393 = system: RXF 393
HCT-116 = system: HCT-116
UO-31 = system: UO-31
OVCAR-8 = system: OVCAR-8
786-0 = system: 786-0
A549 = system: A549
IGROV-1 = system: IGROV-1
SR = system: SR
KM12 = system: KM12
OVCAR-4 = system: OVCAR-4
SK-MEL-2 = system: SK-MEL-2
MOLT-4 = system: MOLT-4
COLO 205 = system: COLO 205
SF-268 = system: SF-268

Measured: GI50

CCCCCCCCC(C)CCCCCCCCC(=O)OCC(COP(=O)([O-])OCC[N+](C)(C)C)OC(=O)CCCCCCCCC(C)CCCCCCCC (stereo not drawn)
inactive: SK-OV-3 > 100 µM | TK-10 > 100 µM | HL-60 > 100 µM | RXF 393 > 100 µM | HCT-116 > 100 µM | UO-31 > 100 µM | OVCAR-8 > 100 µM | 786-0 > 100 µM | A549 > 100 µM | IGROV-1 > 100 µM | SR > 100 µM | KM12 > 100 µM | OVCAR-4 > 100 µM | SK-MEL-2 > 100 µM | MOLT-4 > 100 µM | COLO 205 > 100 µM | SF-268 > 100 µM

O=c1c2cc(-c3ccccc3)sc2nc2sc(-c3ccccc3)nn12
inactive: SK-OV-3 > 100 µM | TK-10 > 100 µM | HL-60 > 100 µM | RXF 393 > 100 µM | HCT-116 > 100 µM | UO-31 > 100 µM | OVCAR-8 > 100 µM | 786-0 > 100 µM | A549 > 100 µM | IGROV-1 > 100 µM | SR > 100 µM | KM12 > 100 µM | OVCAR-4 > 100 µM | SK-MEL-2 > 100 µM | MOLT-4 > 100 µM | COLO 205 > 100 µM | SF-268 > 100 µM

COc1cc(/C=N/N=C(\N)NO)c([N+](=O)[O-])cc1OC
inactive: SK-OV-3 23.3 µM | TK-10 69.3 µM | HL-60 26.8 µM | RXF 393 33.7 µM | HCT-116 28.6 µM | UO-31 35.7 µM | OVCAR-8 31.7 µM | 786-0 29.9 µM | A549 26.3 µM | IGROV-1 53.2 µM | SR 29.2 µM | KM12 44.4 µM | OVCAR-4 15.2 µM | SK-MEL-2 26.5 µM | MOLT-4 27.1 µM | COLO 205 36.1 µM | SF-268 25.2 µM

CCN(CC)CCCC(C)NC(=O)c1ccc2c(c1)C(=O)c1ccccc1C2=O (stereo not drawn)
inactive: SK-OV-3 40.1 µM | TK-10 24.2 µM | HL-60 13.5 µM | RXF 393 19.7 µM | HCT-116 18.6 µM | UO-31 20.1 µM | OVCAR-8 22.3 µM | 786-0 18.6 µM | A549 21.7 µM | IGROV-1 24.9 µM | SR 20.7 µM | KM12 15.4 µM | OVCAR-4 15.1 µM | SK-MEL-2 19.5 µM | MOLT-4 16.6 µM | COLO 205 8.38 µM | SF-268 23.6 µM
